Results on 10 compounds are retold here after ChEMBL document CHEMBL5715260, “Selectivity Literature for EUbOPEN Chemogenomic Library” (2024).

Series [1] addresses T1, Histone acetyltransferase p300 (Homo sapiens, UniProt Q09472). The series can be described thus: (§1) Selectivity interaction (BROMOscan (DiscoverX)) EUB0002298a EP300. Further details: recommended concentration 1 uM.
The target of series [2] is T1, Histone acetyltransferase p300. The series is described as §1. Further details: recommended concentration 1 uM. The source holds these as a separate data set.
Series [3] has the same target. Described as §1. Details: recommended concentration 1 uM. The source holds these as a separate data set.
Series [4] concerns the target T2, Chromobox protein homolog 2 (Homo sapiens, UniProt Q14781).
T2 sequence (Q14781 whole entry): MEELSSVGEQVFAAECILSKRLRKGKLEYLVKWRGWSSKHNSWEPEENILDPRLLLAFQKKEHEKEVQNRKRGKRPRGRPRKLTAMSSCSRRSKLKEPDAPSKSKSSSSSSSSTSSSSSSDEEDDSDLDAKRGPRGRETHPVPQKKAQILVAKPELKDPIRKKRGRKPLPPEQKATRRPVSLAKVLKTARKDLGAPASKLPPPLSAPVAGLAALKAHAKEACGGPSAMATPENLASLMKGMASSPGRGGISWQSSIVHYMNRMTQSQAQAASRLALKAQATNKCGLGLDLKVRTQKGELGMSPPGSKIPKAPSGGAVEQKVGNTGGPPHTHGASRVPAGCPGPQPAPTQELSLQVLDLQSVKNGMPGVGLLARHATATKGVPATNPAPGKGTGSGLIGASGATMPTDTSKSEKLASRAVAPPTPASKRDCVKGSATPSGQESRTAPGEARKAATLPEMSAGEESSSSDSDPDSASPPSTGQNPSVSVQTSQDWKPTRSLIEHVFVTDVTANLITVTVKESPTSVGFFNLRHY
In words: (§2) Selectivity interaction (Fluorescence polarisation assay (chromodomain family)) EUB0002326a CBX2. Details: recommended concentration 1 uM. (In general: Fluorescence polarisation rises when a labelled molecule tumbles more slowly, as on binding a larger partner.)

The target in series [5] is T2, Chromobox protein homolog 2. The series is described as §2. Further details: recommended concentration 1 uM. This is another data set of the same source.
Series [6] deals with Chromobox protein homolog 7 (Homo sapiens, UniProt O95931). In words: Selectivity interaction (Fluorescence polarisation assay (chromodomain family)) EUB0002326a CBX7. Details: recommended concentration 1 uM.
Chain of Chromobox protein homolog 7 (O95931 whole entry): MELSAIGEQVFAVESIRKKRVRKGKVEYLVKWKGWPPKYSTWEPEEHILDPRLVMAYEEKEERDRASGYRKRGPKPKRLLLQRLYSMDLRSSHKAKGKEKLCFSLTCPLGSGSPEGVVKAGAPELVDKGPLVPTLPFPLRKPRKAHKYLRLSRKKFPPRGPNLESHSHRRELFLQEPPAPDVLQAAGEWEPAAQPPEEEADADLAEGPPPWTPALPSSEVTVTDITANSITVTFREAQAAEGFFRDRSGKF
The target in series [7] is T3, Mu-type opioid receptor (Homo sapiens, UniProt P35372). The series can be described thus: (§3) Selectivity interaction (Panel of neurotransmitter receptors, receptors, ion channels/regulatory sites) EUB0002781aCl OPRM1. Details: recommended concentration 1 uM.
T3 sequence (P35372 whole entry): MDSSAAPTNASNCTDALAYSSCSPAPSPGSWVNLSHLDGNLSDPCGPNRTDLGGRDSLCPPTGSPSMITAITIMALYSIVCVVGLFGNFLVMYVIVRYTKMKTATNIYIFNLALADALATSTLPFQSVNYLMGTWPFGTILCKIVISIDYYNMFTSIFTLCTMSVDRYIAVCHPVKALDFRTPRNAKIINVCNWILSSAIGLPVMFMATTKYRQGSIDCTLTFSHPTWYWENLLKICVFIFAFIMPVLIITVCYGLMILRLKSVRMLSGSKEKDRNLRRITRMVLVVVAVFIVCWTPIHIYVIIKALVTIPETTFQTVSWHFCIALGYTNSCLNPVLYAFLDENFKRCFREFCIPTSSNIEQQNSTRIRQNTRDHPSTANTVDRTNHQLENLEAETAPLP
Series [8] concerns the target T4, Delta-type opioid receptor (Homo sapiens, UniProt P41143). In words: (§4) Selectivity interaction (Panel of neurotransmitter receptors, receptors, ion channels/regulatory sites) EUB0002781aCl OPRD1. Further details: recommended concentration 1 uM.
Series [9] deals with Voltage-dependent L-type calcium channel subunit alpha-1S (Homo sapiens) (UniProt Q13698). In words: Selectivity interaction (Panel of neurotransmitter receptors, receptors, ion channels/regulatory sites) EUB0002781aCl CACNA1S. Further details: recommended concentration 1 uM. Conditions: at 10 µM.
Series [10] concerns the target T3, Mu-type opioid receptor. The series is described as §3. Further details: recommended concentration 1 uM. This is another data set of the same source.
The target of series [11] is T4, Delta-type opioid receptor. The description is as §4. Details: recommended concentration 1 uM. This is another data set of the same source.
For series [12], the target named is Kappa-type opioid receptor (Homo sapiens, UniProt P41145). The series can be described thus: Selectivity interaction (Panel of neurotransmitter receptors, receptors, ion channels/regulatory sites) EUB0002781aCl OPRK1. Further details: recommended concentration 1 uM.
For series [13], the target named is T5, Histone deacetylase 8 (Homo sapiens, UniProt Q9BY41).
T5 sequence (Q9BY41 whole entry): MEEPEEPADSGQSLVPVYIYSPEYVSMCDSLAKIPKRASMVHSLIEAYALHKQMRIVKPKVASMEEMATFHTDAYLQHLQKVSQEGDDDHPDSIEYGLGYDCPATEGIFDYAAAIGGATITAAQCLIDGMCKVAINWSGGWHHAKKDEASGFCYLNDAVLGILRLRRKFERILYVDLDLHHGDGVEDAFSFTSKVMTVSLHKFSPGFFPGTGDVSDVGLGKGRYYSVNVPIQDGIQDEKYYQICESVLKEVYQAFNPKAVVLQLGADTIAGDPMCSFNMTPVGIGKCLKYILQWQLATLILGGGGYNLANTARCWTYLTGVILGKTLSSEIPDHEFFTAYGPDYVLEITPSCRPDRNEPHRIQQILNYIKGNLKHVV

Series [14] addresses T5, Histone deacetylase 8. This is another data set of the same source.
Series [15] addresses T5, Histone deacetylase 8. The source holds these as a separate data set.
Series [16] has as its target Sodium-dependent dopamine transporter (Homo sapiens) (UniProt Q01959). In words: Selectivity interaction (SafetyScreen (Eurofins)) EUB0002332a SLC6A3. Further details: recommended concentration 1 uM. Conditions: at 10 µM.
Series [17] deals with Oxidized purine nucleoside triphosphate hydrolase (Homo sapiens) (UniProt P36639). The series can be described thus: Selectivity interaction (Nudix + Nucleotide phosphohydrolase panel (enzymatic assay)) EUB0002332a NUDT1. Further details: recommended concentration 1 uM. The following applies: at 100 µM.
Series [18] addresses 5-hydroxytryptamine receptor 1B (Homo sapiens) (UniProt P28222). The series can be described thus: (§5) Selectivity interaction (SafetyScreen (Eurofins)) EUB0002332a HTR1B. Further details: recommended concentration 1 uM. Conditions: at 10 µM.
For series [19] the target is unchanged. The series is described as §5. Further details: recommended concentration 1 uM. The following applies: at 10 µM. This is another data set of the same source.
Series [20] deals with Sodium-dependent noradrenaline transporter (Homo sapiens) (UniProt P23975). The series can be described thus: Selectivity interaction (SafetyScreen (Eurofins)) EUB0002332a SLC6A2. The following applies: at 10 µM. Details: recommended concentration 1 uM.
Series [21] concerns the target Voltage-gated inwardly rectifying potassium channel KCNH2 (Homo sapiens, UniProt Q12809). The series can be described thus: Selectivity interaction (SafetyScreen (Eurofins)) EUB0002332a KCNH2. Details: recommended concentration 1 uM. Conditions: at 10 µM.
Series [22] deals with Bromodomain adjacent to zinc finger domain protein 2A (Homo sapiens, UniProt Q9UIF9). In words: Selectivity interaction (BROMOscan (Eurofins)) EUB0002282a BAZ2A. Details: recommended concentration 1 uM.
In another series the target is CREB-binding protein (Homo sapiens, UniProt Q92793). In words: Selectivity interaction (BROMOscan (Eurofins)) EUB0002282a CREBBP. Details: recommended concentration 1 uM.
Series [23] addresses Transcription initiation factor TFIID subunit 1 (Homo sapiens, UniProt P21675). In words: Selectivity interaction (BROMOscan (Eurofins)) EUB0002282a TAF1. Further details: recommended concentration 1 uM.
For series [24], the target named is T6, Bromodomain-containing protein 9 (Homo sapiens, UniProt Q9H8M2).
T6 sequence (Q9H8M2 whole entry): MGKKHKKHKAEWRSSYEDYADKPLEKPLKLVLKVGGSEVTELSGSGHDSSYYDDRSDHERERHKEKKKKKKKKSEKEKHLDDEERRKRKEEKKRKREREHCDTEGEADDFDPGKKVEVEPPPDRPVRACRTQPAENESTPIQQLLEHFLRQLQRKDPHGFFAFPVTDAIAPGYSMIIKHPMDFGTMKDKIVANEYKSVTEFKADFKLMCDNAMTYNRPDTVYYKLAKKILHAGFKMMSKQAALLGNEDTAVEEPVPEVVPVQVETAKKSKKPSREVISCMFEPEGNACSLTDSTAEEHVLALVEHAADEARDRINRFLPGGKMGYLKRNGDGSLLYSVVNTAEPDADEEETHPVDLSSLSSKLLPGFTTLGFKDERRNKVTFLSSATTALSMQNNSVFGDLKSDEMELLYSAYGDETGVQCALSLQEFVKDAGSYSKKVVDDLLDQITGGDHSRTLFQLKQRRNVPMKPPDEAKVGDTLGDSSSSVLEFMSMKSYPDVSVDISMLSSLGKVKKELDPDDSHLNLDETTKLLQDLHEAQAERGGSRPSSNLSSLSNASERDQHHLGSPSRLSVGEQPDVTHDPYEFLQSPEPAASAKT
In words: Selectivity interaction (BROMOscan (Eurofins)) EUB0002282a BRD9. Further details: recommended concentration 1 uM.

For a further series, the target named is Peregrin (Homo sapiens, UniProt P55201). In words: Selectivity interaction (BROMOscan (Eurofins)) EUB0002282a BRPF1. Further details: recommended concentration 1 uM.
Series [25] addresses Bromodomain testis-specific protein (Homo sapiens, UniProt Q58F21). In words: Selectivity interaction (BROMOscan (Eurofins)) EUB0002282a BRDT. Further details: recommended concentration 1 uM.
Series [26] deals with T1, Histone acetyltransferase p300. In words: Selectivity interaction (BROMOscan (Eurofins)) EUB0002282a EP300. Further details: recommended concentration 1 uM.
Series [27] addresses Bromodomain adjacent to zinc finger domain protein 2B (Homo sapiens, UniProt Q9UIF8). The series can be described thus: Selectivity interaction (BROMOscan (Eurofins)) EUB0002282a BAZ2B. Further details: recommended concentration 1 uM.
Series [28] deals with Chromatin remodeling regulator CECR2 (Homo sapiens, UniProt Q9BXF3). In words: Selectivity interaction (BROMOscan (Eurofins)) EUB0002282a CECR2. Further details: recommended concentration 1 uM.
Series [29] concerns the target cGMP-inhibited 3',5'-cyclic phosphodiesterase 3B (Homo sapiens, UniProt Q13370). In words: Selectivity interaction (Enzymatic assay) EUB0002598a PDE3B. Further details: recommended concentration 1 uM.
Series [30] deals with Muscarinic acetylcholine receptor M1 (Homo sapiens, UniProt P11229). In words: Selectivity interaction (Membrane binding assay) EUB0002488aCl CHRM1. Details: recommended concentration 1 uM.
Another series addresses P2X purinoceptor 3 (Homo sapiens, UniProt P56373). The series can be described thus: Selectivity interaction (Patch-clamp recording assay) EUB0002673aCl P2RX3. Details: recommended concentration 1 uM. On the technique in general: In patch-clamp work, channel activity is measured electrically.
A further series has as its target Cathepsin S (Homo sapiens, UniProt P25774). The series can be described thus: Selectivity interaction (Enzymatic assay) EUB0002529a CTSS. Further details: recommended concentration 1 uM.

pIC50, pKd, pKi: −log10 of the molar value. Where a SMILES comes first, the peptide text is derived from it. [ ]: non-standard residue; d: D form. The star is where a group is joined. Benzoyl(4-OPh) = O=C(c1ccc(Oc2ccccc2)cc1)*; Lys(Et2) = CCN(CC)CCCC[C@H](N)C(=O)O; d(aIle) = CC[C@H](C)[C@@H](N)C(=O)O; Gly(cPent) = N[C@H](C(=O)O)C1CCCC1; NH(propargyl) = C#CCN* Some results are limits rather than exact numbers.

T1 sequence (Q09472 whole entry): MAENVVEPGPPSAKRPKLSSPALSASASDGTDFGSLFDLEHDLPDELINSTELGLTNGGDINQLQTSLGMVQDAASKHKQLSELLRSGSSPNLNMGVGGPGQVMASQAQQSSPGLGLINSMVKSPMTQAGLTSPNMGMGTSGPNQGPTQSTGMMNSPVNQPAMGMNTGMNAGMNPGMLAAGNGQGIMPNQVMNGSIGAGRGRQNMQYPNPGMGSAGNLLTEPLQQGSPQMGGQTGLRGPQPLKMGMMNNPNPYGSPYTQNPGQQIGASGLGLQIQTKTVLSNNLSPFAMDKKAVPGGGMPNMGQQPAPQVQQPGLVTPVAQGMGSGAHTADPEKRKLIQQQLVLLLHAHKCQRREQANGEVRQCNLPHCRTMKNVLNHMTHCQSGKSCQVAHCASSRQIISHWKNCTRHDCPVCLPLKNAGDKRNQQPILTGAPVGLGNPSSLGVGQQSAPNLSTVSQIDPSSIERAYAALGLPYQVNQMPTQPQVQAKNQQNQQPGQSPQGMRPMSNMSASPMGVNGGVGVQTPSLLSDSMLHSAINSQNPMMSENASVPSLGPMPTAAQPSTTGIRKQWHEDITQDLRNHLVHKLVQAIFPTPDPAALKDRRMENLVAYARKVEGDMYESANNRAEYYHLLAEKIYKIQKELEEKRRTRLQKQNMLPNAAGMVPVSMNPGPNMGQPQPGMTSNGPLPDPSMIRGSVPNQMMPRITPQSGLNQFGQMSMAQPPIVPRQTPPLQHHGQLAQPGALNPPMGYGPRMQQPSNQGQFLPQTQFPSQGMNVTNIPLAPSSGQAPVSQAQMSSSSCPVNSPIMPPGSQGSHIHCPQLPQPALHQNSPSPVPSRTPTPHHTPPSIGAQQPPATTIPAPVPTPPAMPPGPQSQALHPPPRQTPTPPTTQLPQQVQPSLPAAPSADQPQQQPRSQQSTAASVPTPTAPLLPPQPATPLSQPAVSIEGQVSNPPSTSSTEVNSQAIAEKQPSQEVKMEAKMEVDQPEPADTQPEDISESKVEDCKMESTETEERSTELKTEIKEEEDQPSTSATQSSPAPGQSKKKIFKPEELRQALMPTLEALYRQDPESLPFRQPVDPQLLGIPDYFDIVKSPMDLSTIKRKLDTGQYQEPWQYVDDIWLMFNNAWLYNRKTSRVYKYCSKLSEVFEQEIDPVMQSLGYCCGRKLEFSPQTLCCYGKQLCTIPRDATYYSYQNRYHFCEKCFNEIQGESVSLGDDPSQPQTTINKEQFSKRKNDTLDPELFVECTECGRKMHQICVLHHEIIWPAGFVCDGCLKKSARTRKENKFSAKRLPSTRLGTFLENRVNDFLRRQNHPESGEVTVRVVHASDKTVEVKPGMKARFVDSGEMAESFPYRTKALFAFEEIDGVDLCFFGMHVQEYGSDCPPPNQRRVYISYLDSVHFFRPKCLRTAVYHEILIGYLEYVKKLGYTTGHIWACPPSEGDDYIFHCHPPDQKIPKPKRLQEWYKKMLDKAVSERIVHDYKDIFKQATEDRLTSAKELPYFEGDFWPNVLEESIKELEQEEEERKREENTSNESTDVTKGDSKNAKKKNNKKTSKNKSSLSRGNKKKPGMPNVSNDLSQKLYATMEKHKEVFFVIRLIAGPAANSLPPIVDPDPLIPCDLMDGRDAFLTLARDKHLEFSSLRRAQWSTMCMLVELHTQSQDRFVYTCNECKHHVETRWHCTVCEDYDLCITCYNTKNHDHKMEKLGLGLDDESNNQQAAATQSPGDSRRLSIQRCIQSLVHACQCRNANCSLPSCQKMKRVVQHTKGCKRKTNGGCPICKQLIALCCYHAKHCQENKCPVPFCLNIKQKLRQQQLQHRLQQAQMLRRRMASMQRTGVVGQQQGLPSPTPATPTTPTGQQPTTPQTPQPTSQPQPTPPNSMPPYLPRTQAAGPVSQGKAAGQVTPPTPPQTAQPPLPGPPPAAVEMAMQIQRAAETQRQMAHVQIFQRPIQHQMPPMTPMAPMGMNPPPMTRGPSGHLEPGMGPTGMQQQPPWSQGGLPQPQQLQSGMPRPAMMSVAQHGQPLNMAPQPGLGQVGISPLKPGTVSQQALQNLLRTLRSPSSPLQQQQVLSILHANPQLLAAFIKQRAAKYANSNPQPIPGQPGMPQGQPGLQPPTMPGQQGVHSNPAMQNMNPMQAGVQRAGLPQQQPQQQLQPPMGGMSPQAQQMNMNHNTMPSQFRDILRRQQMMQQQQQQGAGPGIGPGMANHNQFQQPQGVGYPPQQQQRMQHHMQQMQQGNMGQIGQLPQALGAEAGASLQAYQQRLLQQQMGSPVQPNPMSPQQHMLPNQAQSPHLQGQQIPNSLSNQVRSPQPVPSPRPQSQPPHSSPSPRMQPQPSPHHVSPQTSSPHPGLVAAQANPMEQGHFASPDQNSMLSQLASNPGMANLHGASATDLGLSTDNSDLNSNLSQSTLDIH
Chain of 5-hydroxytryptamine receptor 1B (Homo sapiens) (P28222 whole entry): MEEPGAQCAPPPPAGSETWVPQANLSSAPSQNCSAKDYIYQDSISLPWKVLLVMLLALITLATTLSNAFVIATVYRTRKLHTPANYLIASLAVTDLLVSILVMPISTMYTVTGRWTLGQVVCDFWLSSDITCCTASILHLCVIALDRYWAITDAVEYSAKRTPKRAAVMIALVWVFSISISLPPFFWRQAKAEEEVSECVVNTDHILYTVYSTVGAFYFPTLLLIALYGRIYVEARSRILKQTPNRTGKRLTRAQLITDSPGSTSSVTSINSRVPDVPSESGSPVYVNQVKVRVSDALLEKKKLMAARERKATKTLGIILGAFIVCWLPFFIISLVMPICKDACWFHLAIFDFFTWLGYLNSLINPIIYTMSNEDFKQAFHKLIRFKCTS
T4 sequence (P41143 whole entry): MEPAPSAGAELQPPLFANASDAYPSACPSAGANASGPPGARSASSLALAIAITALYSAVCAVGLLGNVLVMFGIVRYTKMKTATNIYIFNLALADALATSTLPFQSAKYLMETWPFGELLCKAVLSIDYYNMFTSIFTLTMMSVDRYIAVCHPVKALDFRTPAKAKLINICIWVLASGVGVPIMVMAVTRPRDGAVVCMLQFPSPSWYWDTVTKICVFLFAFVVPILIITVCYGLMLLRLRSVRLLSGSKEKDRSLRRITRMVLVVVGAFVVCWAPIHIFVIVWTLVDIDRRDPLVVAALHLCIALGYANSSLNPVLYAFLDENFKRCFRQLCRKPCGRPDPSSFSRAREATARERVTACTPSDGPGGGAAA
Chain of P2X purinoceptor 3 (P56373 whole entry): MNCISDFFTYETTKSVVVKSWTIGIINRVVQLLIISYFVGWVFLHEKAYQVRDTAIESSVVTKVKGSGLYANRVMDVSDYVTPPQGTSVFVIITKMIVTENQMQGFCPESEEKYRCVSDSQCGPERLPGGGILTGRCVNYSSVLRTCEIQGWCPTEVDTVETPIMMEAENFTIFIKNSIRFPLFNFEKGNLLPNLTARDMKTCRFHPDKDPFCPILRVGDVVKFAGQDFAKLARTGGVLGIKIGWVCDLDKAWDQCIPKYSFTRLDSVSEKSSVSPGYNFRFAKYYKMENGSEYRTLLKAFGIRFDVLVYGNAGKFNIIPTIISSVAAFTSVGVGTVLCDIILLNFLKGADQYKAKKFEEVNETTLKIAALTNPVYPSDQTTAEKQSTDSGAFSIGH
Chain of Sodium-dependent dopamine transporter (Homo sapiens) (Q01959 whole entry): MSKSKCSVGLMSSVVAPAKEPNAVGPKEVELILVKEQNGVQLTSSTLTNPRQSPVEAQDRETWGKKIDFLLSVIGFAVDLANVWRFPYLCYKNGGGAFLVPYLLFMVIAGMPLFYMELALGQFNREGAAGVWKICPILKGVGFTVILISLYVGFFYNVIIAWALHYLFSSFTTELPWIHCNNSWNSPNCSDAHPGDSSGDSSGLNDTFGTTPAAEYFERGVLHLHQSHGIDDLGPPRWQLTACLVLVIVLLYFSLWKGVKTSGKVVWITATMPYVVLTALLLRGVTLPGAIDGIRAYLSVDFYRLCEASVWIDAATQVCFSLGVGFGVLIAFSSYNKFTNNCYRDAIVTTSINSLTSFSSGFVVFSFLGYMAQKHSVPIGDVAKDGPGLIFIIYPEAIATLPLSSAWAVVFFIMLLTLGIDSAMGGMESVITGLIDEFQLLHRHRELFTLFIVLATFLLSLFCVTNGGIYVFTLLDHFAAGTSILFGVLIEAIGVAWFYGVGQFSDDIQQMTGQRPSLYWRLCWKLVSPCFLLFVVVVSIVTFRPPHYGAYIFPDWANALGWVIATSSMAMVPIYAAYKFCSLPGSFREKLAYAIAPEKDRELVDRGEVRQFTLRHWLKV

In the case of `CCCOc1ccc(CCc2nc3cc(-c4c(C)noc4C)ccc3n2CCN2CCOCC2)cc1`, the pIC50 in [1], in series [2] and in series [3] was 6.44 in each case.
Regarding `C#CCNC(=O)[C@H](CO)NC(=O)[C@H](CCCCN(CC)CC)NC(=O)[C@H](NC(=O)[C@@H](NC(=O)c1ccc(Oc2ccccc2)cc1)C1CCCC1)[C@@H](C)CC` ({Benzoyl(4-OPh)}-[Gly(cPent)][d(aIle)][Lys(Et2)]S-{NH(propargyl)}), the pKd (in general, the Kd on a negative log10 scale, so that one unit is a factor of ten) in [4] was 5.34; in [5] it was 5.34; in [6] it was below 4.80.
Consider `N=C(N)NC(=O)c1cnn(-c2cccc3ncccc23)c1C1CC1`, for which the pKi (as a rule, the Ki on a negative log10 scale, so that one unit is a factor of ten) was 6.67 on Mu-type opioid receptor [7]; 6.67 in series [8]; 7.22 on Mu-type opioid receptor [10]; 6.62 in [11]; 6.67 in series [12]. Moreover, the inhibition (commonly the drop in the measured response relative to a control, in per cent) in series [9] came to 62%.
For the compound `CN(C)Cc1ccc(S(=O)(=O)n2ccc(/C=C/C(=O)NO)c2)cc1`, the pIC50 against Histone deacetylase 8 [13], against Histone deacetylase 8 [14] and against Histone deacetylase 8 [15] was 6.06 in each case.
For the compound `Cn1c(=O)c2c(nc(N3CCNCC3)n2Cc2nnc(-c3ccc(Cl)c(Cl)c3)o2)n(C)c1=O`, the Inhibition of control is 50% in [16]; above 50% in [18]; above 50% in [19]; above 50% in [20]; above 50% in series [21]. Besides, in series [17], the Enzyme activity was below 20%.
With `Cc1cc(-c2ccc3nc(C4CCOCC4)n(CCOC(F)(F)F)c3c2)cn(C)c1=O`, the pKd is 6.85 in [22]; 7.64 at CREB-binding protein; 6.96 in [23]; 7.19 in [24]; 7.00 at Peregrin; 7.60 in series [25]. For the same compound, the pKd was 7.60 in [26], 6.72 in [27] and 7.42 in series [28].
Take `CC(C)C(=O)c1c(C(C)C)nn2ccccc12` [IBUDILAST]: the pIC50 (in general, −log10 of the IC50, conventionally taken in molar units) in series [29] was 5.57.
In series [30], `CN1[C@@H]2CC[C@H]1C[C@@H](OC(c1ccc(F)cc1)c1ccc(F)cc1)C2` had a pKi of 7.94.
Turning to `CCCCOc1c(OC)cc(C(=O)NCC2(N(C)C)CCOCC2)cc1OC`, the pIC50 against P2X purinoceptor 3 was 6.06.
`Cn1nc(C(C)(C)C)cc1C(=O)NC(Cc1cccc(Cl)c1)C(=O)NCC#N` (centres undefined) gave a pKi on Cathepsin S of 6.07.
